Where only a bound is given, the exact number is not on record here.

The target in the first assay is T1, human PI 3-kinase p120γ (Homo sapiens, UniProt P48736).
T1 construct: purchased Millipore Corporation
T1 sequence (P48736 whole entry): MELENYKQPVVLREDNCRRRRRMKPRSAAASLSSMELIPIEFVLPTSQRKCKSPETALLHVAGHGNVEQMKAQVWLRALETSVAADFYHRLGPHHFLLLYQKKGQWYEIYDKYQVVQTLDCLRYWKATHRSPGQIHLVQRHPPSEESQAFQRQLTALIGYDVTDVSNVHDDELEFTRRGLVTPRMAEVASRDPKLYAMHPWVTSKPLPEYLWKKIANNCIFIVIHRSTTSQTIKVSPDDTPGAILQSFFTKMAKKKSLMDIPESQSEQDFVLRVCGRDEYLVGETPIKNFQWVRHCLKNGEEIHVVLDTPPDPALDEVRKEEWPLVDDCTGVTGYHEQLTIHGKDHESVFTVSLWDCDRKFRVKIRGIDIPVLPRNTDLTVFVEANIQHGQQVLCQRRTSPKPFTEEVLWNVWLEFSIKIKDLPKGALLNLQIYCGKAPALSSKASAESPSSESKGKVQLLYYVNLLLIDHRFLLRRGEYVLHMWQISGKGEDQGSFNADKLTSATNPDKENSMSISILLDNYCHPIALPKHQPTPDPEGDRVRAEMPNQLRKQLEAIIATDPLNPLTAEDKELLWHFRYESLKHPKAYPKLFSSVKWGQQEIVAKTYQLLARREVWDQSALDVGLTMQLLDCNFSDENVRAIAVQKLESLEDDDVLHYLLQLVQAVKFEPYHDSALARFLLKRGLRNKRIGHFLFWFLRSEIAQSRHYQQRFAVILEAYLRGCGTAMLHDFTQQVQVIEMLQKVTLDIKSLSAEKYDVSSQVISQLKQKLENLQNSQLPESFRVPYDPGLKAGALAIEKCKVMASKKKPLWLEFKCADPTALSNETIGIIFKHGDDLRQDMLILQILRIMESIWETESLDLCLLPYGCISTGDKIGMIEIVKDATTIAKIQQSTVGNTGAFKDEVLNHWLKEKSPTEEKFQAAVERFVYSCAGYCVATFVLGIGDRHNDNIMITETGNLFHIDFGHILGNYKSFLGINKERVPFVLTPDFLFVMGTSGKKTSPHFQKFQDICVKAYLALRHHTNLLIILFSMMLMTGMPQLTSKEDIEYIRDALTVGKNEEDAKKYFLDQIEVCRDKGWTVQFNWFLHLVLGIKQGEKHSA
The assay can be described thus: PI 3-kinase p120γ enzyme activity inhibition test. Type of assay: biochemical. The note with it: ATP 10.0 μM, PIP2-PS 5.0 μM, 30° C., 2 hours; read-out: IC50 value. How it is done: Using human PI 3-kinase p120γ (manufactured by Millipore Corporation) and a mixed micellized product (hereinafter abbreviated as PIP2-PS) of the substrate thereof, L-a-Phosphatidyl-D-myo-inositol-4,5-bisphosphate (product of Calbiochem, hereinafter abbreviated as PIP2), and L-a-Phosphatidyl-L-Serine (manufactured by Sigma, hereinafter abbreviated as PS), the compound of the present invention was examined for the inhibitory action on PI3 Kinase p120γ enzyme activity (Km=8.9 μM for ATP, Km=4.0 μM for PIP2-PS).
PIP2-PS was prepared by mixing 500 μM of PIP2 and 2.5 nM of PS and sonicating the mixture for 40 minutes while ice cooling to cause micellization. ATP (final concentration 10.0 μM), [γ-^33P] ATP (final concentration 10 μCi/ml), PIP2-PS (final concentration 5.0 μM) and DMSO solutions of the test compound in different concentrations (compound final concentration 1.0×10^−5 to 2.4×10^−12 M, DMSO final concentration 0.1%) were added to PI 3-kinase p120γ, stirred and reacted at 30° C. for 2 hours. Using Phospholipid-Coated FlashPlate Microplates, 96-Well and Phospholipid FlashPlate Coating Buffer (both manufactured by PerkinElmer Co., Ltd.), PIP2-PS and phosphorylated PIP2-PS were allowed to be adsorbed to the well wall of the plate and collected. The well was washed twice with PBS (Phosphate-Buffered Saline) and dried. The radioactivity was measured using Top Count NXT (manufactured by PerkinElmer Co., Ltd.), whereby the phosphorylated amount (a) of PIP2-PS at the time of compound addition was calculated.
The same procedure was carried out in the absence of the test compound and the phosphorylated amount (b) of PIP2-PS was calculated. Further, the same procedure was carried out in the absence of both of the substrate and the test compound, and the PIP2-PS phosphorylated amount (c) of the background was calculated.
The PI3 Kinase p120γ enzyme activity suppression rate of the compound was calculated by the following formula. Suppression rate (%)=[1−(a−c)/(b−c)]×100
More specifically, using the suppression rate by the test compound of different concentrations, the IC50 value was calculated according to the dose-dependent inhibition curve analyzed by a data analysis software Origin (Lightstone Corp.) and used as the inhibitory activity index.
What is called IC50 is the concentration needed to halve the response being measured. Turning to `CC(=O)Nc1nc(C)c(-c2nc(-c3ccc(OCc4cccnc4)nc3)no2)s1` [Example 5], the IC50 amounted to 7230 nM.

The assay is the same for the next values; noted with them: ATP 10.0 μM, PIP2-PS 5.0 μM, 30° C., 2 hours; read-out: PI3Kγ (IC50 value class).
Consider `CC(=O)Nc1nc(C)c(-c2nc(CC(C)(C)CO)no2)s1` [Example 31, N-{5-[3-(3-hydroxy-2,2-dimethylpropyl)-1,2,4-oxadiazol-5-yl]-4-methyl-1,3-thiazol-2-yl}acetamide], for which the IC50 is less than 100 nM. Same read-out and setting: in the case of `CC(=O)Nc1nc(C)c(-c2nc(CC(F)(F)F)no2)s1` [Example 19] it was less than 100 nM; in that of `Cc1nc(N)sc1-c1nc(CC(C)(C)CO)no1` [Example 156], less than 100 nM; in that of `CC(=O)Nc1nc(C)c(-c2nc(CC(C)(C)C(N)=O)no2)s1` [Example 111], less than 100 nM. The same measure, in the same setting: for `Cc1nc(NC(=O)OCCC(=O)OC(C)(C)C)sc1-c1nc(-c2cccnc2)no1` [Example 129, Tert-butyl-3-[({4-methyl-5-[3-(pyridin-3-yl)-1,2,4-oxadiazol-5-yl]-1,3-thiazol-2-yl}carbamoyl)oxy]propanoate] the value was less than 100 nM; for `CC(=O)Nc1nc(C)c(-c2nc(-c3ccncc3)no2)s1` [Example 11], 500 to 10000 nM; for `Cc1nc(NC(=O)NCCC(=O)OC(C)(C)C)sc1-c1nc(-c2cncnc2)no1` [Example 141], less than 100 nM. Still for that read-out and setting: for `CC(=O)Nc1nc(C)c(-c2nc(C[C@H](C)CO)no2)s1` [Example 62] the value was less than 100 nM; for `CC(=O)Nc1nc(C)c(-c2nc(CC(C)C)no2)s1` [Example 20], less than 100 nM.

With `COCc1noc(-c2sc(NC(C)=O)nc2C)n1` [Example 50], the IC50 lay in the range of 100 to 500 nM. Same read-out and setting: in the case of `CC(=O)Nc1nc(C)c(-c2nc(CC(C)(C)CF)no2)s1` [Example 95] it was less than 100 nM. Same read-out and setting: for `CC(=O)Nc1nc(C)c(-c2nc(CCCO)no2)s1` [Example 33] the value was 100 to 500 nM; for `CC(=O)Nc1nc(C)c(-c2nc(CC3CCOCC3)no2)s1` [Example 45], 100 to 500 nM; for `CC(=O)Nc1nc(C)c(-c2nc(C(N)=O)no2)s1` [Example 70], 100 to 500 nM. On the same count and under the same terms, for `CC(=O)Nc1nc(C)c(-c2nc(-c3ccccc3)no2)s1` [Example 7] the value was less than 100 nM; for `Cc1nc(NC(N)=O)sc1-c1nc(-c2cccnc2)no1` [Example 124], less than 100 nM.

In the case of `Cc1nc(NC(=O)C(C)C)sc1-c1nc(-c2cccnc2)no1` [Example 115, 2-Methyl-N-{4-methyl-5-[3-(pyridin-3-yl)-1,2,4-oxadiazol-5-yl]-1,3-thiazol-2-yl}propanamide], the IC50 lay within 100 to 500 nM. Take `CC(=O)Nc1nc(C)c(-c2nc(-c3ccc(OCc4cccnc4)nc3)no2)s1` [Example 5]: the IC50 lay in the range of 500 to 10000 nM. On the same count and under the same terms, in the case of `CC(=O)Nc1nc(C)c(-c2nc(-c3cccnc3C)no2)s1` [Example 6] it was less than 100 nM; in that of `Cc1nc(NC(=O)NCCC(=O)NC(C)(CO)CO)sc1-c1nc(-c2cccnc2)no1` [Example 152], less than 100 nM; in that of `CC(=O)Nc1nc(C)c(-c2nc(C3CC3(C)C)no2)s1` (stereo not shown) [Example 101], less than 100 nM. Still for that read-out and setting: in the case of `CC(=O)Nc1nc(C)c(-c2nc(C(C)(C)C)no2)s1` [Example 2, N-[5-(3-tert-butyl-1,2,4-oxadiazol-5-yl)-4-methyl-1,3-thiazol-2-yl]acetamide] it was less than 100 nM. Same read-out and setting: for `Cc1nc(NC(=O)NCCC(=O)OC(C)(C)C)sc1-c1nc(-c2cccnc2)no1` [Example 117, Tert-butyl N-({4-methyl-5-[3-(pyridin-3-yl)-1,2,4-oxadiazol-5-yl]-1,3-thiazol-2-yl}carbamoyl)-β-alaninate] the value was less than 100 nM; for `CC(=O)Nc1nc(C)c(-c2nc(-c3ccccc3CO)no2)s1` [Example 29], less than 100 nM; for `CC(=O)Nc1nc(C)c(-c2nc(C(C)=O)no2)s1` [Example 60], less than 100 nM. `Cc1nc(NC(=O)NCCC(=O)OC(C)(C)C)sc1-c1nc(CC(C)(C)O)no1` [Example 170]: the concentration for half-maximal inhibition (IC50) is less than 100 nM. The same measure, in the same setting: in the case of `Cc1nc(NC(=O)NCCCOC(C)(C)C)sc1-c1nc(CC(C)(C)CO)no1` [Example 160] it was less than 100 nM; in that of `Cc1nc(NC(=O)NCCC(=O)OC(C)(C)C)sc1-c1nc(C2CCCCC2)no1` [Example 153], less than 100 nM. For `CC(=O)Nc1nc(C)c(-c2nc(CN3CCOCC3)no2)s1` [Example 75], the 50% inhibitory concentration (IC50) fell in the range of 500 to 10000 nM.

In the case of `Cc1nc(NC(=O)NCCCN(C)C)sc1-c1nc(-c2cccnc2)no1` [Example 127], the half-inhibitory concentration (IC50) is less than 100 nM. The same measure, in the same setting: for `CC(=O)Nc1nc(C)c(-c2nc(N3CC[C@H](O)C3)no2)s1` [Example 102] the value was 100 to 500 nM; for `CC(=O)Nc1nc(C)c(-c2nc(CC3(CO)COC3)no2)s1` [Example 57], 100 to 500 nM; for `CC(=O)Nc1nc(C)c(-c2nc(-c3cc[nH]c(=O)c3)no2)s1` [Example 113], 100 to 500 nM.

For `COCC(C)(C)Cc1noc(-c2sc(NC(C)=O)nc2C)n1` [Example 51], the concentration for half-maximal inhibition (IC50) was less than 100 nM. On the same count and under the same terms, for `CNCc1noc(-c2sc(NC(C)=O)nc2C)n1` [Example 79] the value was 500 to 10000 nM; for `Cc1nc(NC(=O)NCCC(=O)N2CCOCC2)sc1-c1nc(-c2cccnc2)no1` [Example 145], less than 100 nM.

Values taken from US8637557B2, “Aminothiazole derivative” (Taisho Pharmaceutical Co., Ltd, priority 2009, dated 2014).
